Test results from patent publication US12043674B2, “Synthetic cyclic peptides and methods of preparation and use thereof” (Auburn University, priority 2020, dated 2024).
“Also recorded” adds a separate entry of the source. Ends that are not written are not given here.

How the values were obtained:
[1] = CyClick: N-terminal amine condenses with side-chain or C-terminal aldehyde (or ketone) to a cyclic imine, then the residue-2 amide N attacks to give a 4-imidazolidinone; DMAP (7 equiv); conditions: H2O/DMF 1:1, 5.0 mM, 25.0 °C
[2] = biological target: chymotrypsin (Bos taurus, UniProt P00766); assay: Enzymatic degradation study: proteolytic stability on incubation with chymotrypsin (HPLC, LCMS); format: in vitro ADME; conditions: for remaining at 5 min, 1.5 mM / remaining at 0.25 h, 1.5 mM / remaining at 0.5 h, 1.5 mM / remaining at 0.75 h, 1.5 mM / remaining at 1 h, 1.5 mM / remaining at 1.5 h, 1.5 mM / remaining at 2 h, 1.5 mM / remaining at 8 h, 1.5 mM: chymotrypsin (isolated protease) in Tris buffer, read-out: enzyme degradation studies, peptide at time point; for remaining at 5 min, 1.5 mM / remaining at 0.25 h, 1.5 mM / remaining at 0.5 h, 1.5 mM / remaining at 0.75 h, 1.5 mM / remaining at 1 h, 1.5 mM / remaining at 1.5 h, 1.5 mM / remaining at 2 h, 1.5 mM / remaining at 8 h, 1.5 mM / enzyme degradation studies, peptide at time point: chymotrypsin, 10 mM Tris buffer pH 7.5, peptide 1.5 mM; for remaining at 0.25 h, 1.5 mM: time 15 min; for remaining at 0.5 h, 1.5 mM: time 30 min; for remaining at 0.75 h, 1.5 mM: time 45 min; for remaining at 1 h, 1.5 mM: time 60 min; for remaining at 1.5 h, 1.5 mM: time 90 min; for remaining at 2 h, 1.5 mM: time 120 min; for remaining at 8 h, 1.5 mM: time 480 min; for enzyme degradation studies, peptide at time point: time 0 min
Method: FIG. 25, comprising FIG. 25A through FIG. 25C, depicts representative enzymatic Degradation Studies. Linear peptide AVGPFEY (SEQ ID NO: 13) and cyclic peptide cyc(AVGPFEY) (SEQ ID NO: 13) 2a were individually dissolved in 10 mM Tris buffer pH 7.5 (final conc. 1.5 mM). A chymotrypsin stock solution was created by the addition of 1 mg chymotrypsin in 100 μL CaCl2 (0.01 M), 100 μL tris buffer (0.1 M pH 7.5), 100 μL HCl (1 mM). 10 μL of the chymotrypsin stock solution was added to both linear peptide AVGPFEY (SEQ ID NO: 13) and cyclic peptide cyc(AVGPFEY) (SEQ ID NO: 13) 2a solutions. Samples (100 μL) were taken after regular intervals of time from both linear and cyclic peptide solutions. 100 μL of each sample was quenched with 400 μL of frozen water and solutions were frozen at −80° C. at the following time intervals: 0 min, 5 min, 15 min, 30 min, 45 min, 60 min, 90 min, 120 min, and 480 min. Each sample was lyophilized and analyzed using HPLC and LCMS. FIG. 25A depicts a schematic representation of the enzyme degradation of cyclic peptide cyc(AVGPFEY) (SEQ ID NO: 13) 2a. FIG. 25B depicts a schematic representation of the enzyme degradation of linear peptide 1a. FIG. 25C depicts representative HPLC data of various time aliquots of the enzyme degradation of linear peptide 1a.
To evaluate the potential of 4-imidazolidinone cyclic peptides for biological applications, the proteolytic stability of a cyclic peptide cyc(AVGPFEY) (SEQ ID NO: 13) 2a in comparison with its linear counterpart AVGPFEY (SEQ ID NO: 13) was examiner. Linear peptide AVGPFEY ID NO: 13) and cyclic peptide cyc(AVGPFEY) (SEQ ID NO: 13) 2a were incubated with chymotrypsin, which hydrolyzes peptide bonds at the C-terminal side of aromatic residues, such as Phe.

[3] = as above; format: in vitro ADME; conditions: chymotrypsin (isolated protease) in Tris buffer, pH 7.5; up to 24 h; HPLC and MS analysis; read-out: cleavage observed in the presence of chymotrypsin
[4] = Stability of 4-imidazolidinone cyclic peptide under different pH conditions (hydrolysis/degradation, HPLC); format: physicochemical; conditions: 10 mM phosphate buffer, pH 3.5, 5.5, 7.5, 8.5, 10.5, room temperature, up to 24 h
Method: FIG. 22, comprising FIG. 22A through FIG. 22D, depicts representative effects of 4-imidazolidinone in cyclic peptides. FIG. 22A depicts representative VT-NMR spectra of head-to-tail 4-imidazolidinone cyclic peptide 4a in aqueous solutions. FIG. 22B depicts representative turn structure of 4-imidazolidinone cyclic peptide 4a obtained by running ForceGen (Jain A N et al., 2019, J. Comput.-Aided Mol. Des., 33:531) with NMR constraints. […] Cyclic peptide cyc(NVGPFEY) (SEQ ID NO: 19) 2f (2.5 mg) was dissolved in H2O to form a stock solution (500 μL, conc. 7 mM). 100 μL of the stock was added to 400 μL of sodium phosphate buffer (10 mM) at the following pH values: 3.5, 5.5, 7.5, 8.5, 10.5 (total conc. 1.4 mM). The reactions were shaken at room temperature. Samples were analyzed by injecting them in HPLC after regular intervals of time. […] FIG. 22D depicts representative proteolytic stability of 4-imidazolidinone cyclic peptide 2a as compared to its linear counterpart.
The stability of cyclic peptides is a major concern, for pharmaceutical applications. To evaluate the stability of a 4-imidazolidinone cyclic peptide, cyclic peptide cyc(NVGPFEY) (SEQ ID NO: 19) 2f was incubated under different pH conditions.

With `CC(C)[C@H]1C(=O)NCC(=O)N2CCC[C@H]2C(=O)N[C@@H](Cc2ccccc2)C(=O)N[C@H](C(=O)N[C@@H](Cc2ccc(O)cc2)C(N)=O)CCC(=O)NCC2N[C@@H](CO)C(=O)N21` (stereo partly drawn) [H-Ser-Val-Gly-Pro-Phe-Glu(NH-CH2-CHO)-Tyr-NH2] the ring closure, conversion by HPLC ([1]; from CC(C)[C@H](NC(=O)[C@@H](N)CO)C(=O)NCC(=O)N1CCC[C@H]1C(=O)N[C@@H](Cc1ccccc1)C(=O)N[C@@H](CCC(=O)NCC=O)C(=O)N[C@@H](Cc1ccc(O)cc1)C(N)=O, 20-membered ring) was 100%.

`C[C@@H]1NC(=O)[C@@H]2CCCN2C(=O)CN2C(=O)[C@H](Cc3ccccc3)NC12` (stereo partly drawn) [H-Phe-Gly-Pro-Ala-H (C-terminal aldehyde)] showed a ring closure, conversion by HPLC ([1]; from C[C@@H](C=O)NC(=O)[C@@H]1CCCN1C(=O)CNC(=O)[C@@H](N)Cc1ccccc1, 9-membered ring, 24.0 h) of 0%.

For `C[C@@H]1NC2[C@H](C)NC(=O)[C@@H]3CCCN3C(=O)CNC(=O)[C@H](Cc3ccccc3)N2C1=O` (stereo partly drawn) [H-Ala-Phe-Gly-Pro-Ala-H (C-terminal aldehyde)], the ring closure, conversion by HPLC ([1]; from C[C@H](N)C(=O)N[C@@H](Cc1ccccc1)C(=O)NCC(=O)N1CCC[C@H]1C(=O)N[C@@H](C)C=O, 12-membered ring) was 71%.

Compound `CC(C)[C@H]1C(=O)NCC(=O)N2CCC[C@H]2C(=O)N[C@@H](Cc2ccccc2)C(=O)N[C@H](C(=O)N[C@@H](Cc2ccc(O)cc2)C(N)=O)CCC(=O)NCC2N[C@@H](CC(N)=O)C(=O)N21` (stereo partly drawn) [H-Asn-Val-Gly-Pro-Phe-Glu(NH-CH2-CHO)-Tyr-NH2] has a ring closure, conversion by HPLC ([1]; from CC(C)[C@H](NC(=O)[C@@H](N)CC(N)=O)C(=O)NCC(=O)N1CCC[C@H]1C(=O)N[C@@H](Cc1ccccc1)C(=O)N[C@@H](CCC(=O)NCC=O)C(=O)N[C@@H](Cc1ccc(O)cc1)C(N)=O, 20-membered ring, 16.0 h) of 85%.

`CC(C)[C@H]1C(=O)NCC(=O)N2CCC[C@H]2C(=O)N[C@@H](Cc2ccccc2)C(=O)N[C@H](C(=O)N[C@@H](Cc2ccc(O)cc2)C(N)=O)CCCCNC(=O)CCC2(C)N[C@@H](C)C(=O)N12` (stereo partly drawn) [H-Ala-Val-Gly-Pro-Phe-Lys(levulinoyl)-Tyr-NH2] showed a ring closure, conversion by HPLC ([1]; from CC(=O)CCC(=O)NCCCC[C@H](NC(=O)[C@H](Cc1ccccc1)NC(=O)[C@@H]1CCCN1C(=O)CNC(=O)[C@@H](NC(=O)[C@H](C)N)C(C)C)C(=O)N[C@@H](Cc1ccc(O)cc1)C(N)=O, 23-membered ring) of 36%.

Compound `C[C@@H]1N=CCNC(=O)CC[C@@H](C(=O)N[C@@H](Cc2ccc(O)cc2)C(N)=O)NC(=O)[C@H](Cc2ccccc2)NC(=O)[C@H](C)NC(=O)CNC(=O)[C@@H]2CCCN2C1=O` [H-Ala-Pro-Gly-Ala-Phe-Glu(NH-CH2-CHO)-Tyr-NH2] has a ring closure, conversion by HPLC ([1]; from C[C@H](N)C(=O)N1CCC[C@H]1C(=O)NCC(=O)N[C@@H](C)C(=O)N[C@@H](Cc1ccccc1)C(=O)N[C@@H](CCC(=O)NCC=O)C(=O)N[C@@H](Cc1ccc(O)cc1)C(N)=O, 20-membered ring) of 0%.

For `CC(C)[C@H]1C(=O)NCC(=O)N2CCC[C@H]2C(=O)N[C@@H](Cc2ccccc2)C(=O)N[C@H](C(=O)N[C@@H](Cc2ccc(O)cc2)C(N)=O)CCC(=O)NC[C@@H]2N[C@@H](C)C(=O)N21` [2a, cyc(Ala-Val-Gly-Pro-Phe-Glu)Tyr], the remaining at 5 min, 1.5 mM [2] was 100%, the remaining at 0.25 h, 1.5 mM [2] was 100% and the remaining at 0.5 h, 1.5 mM [2] was 100%. For the same compound, the remaining at 0.75 h, 1.5 mM [2] was 100%, the remaining at 1 h, 1.5 mM [2] was 100% and the remaining at 1.5 h, 1.5 mM [2] was 100%. For the same compound, the remaining at 2 h, 1.5 mM [2] was 100%, the remaining at 8 h, 1.5 mM [2] was 91.9% and the enzyme degradation studies, peptide at time point [2] was 100%. For the same compound, the metabolised at 24 h, 1.5 mM [3] was 20%.

`CC(C)[C@H]1C(=O)NCC(=O)N2CCC[C@H]2C(=O)N[C@@H](Cc2ccccc2)C(=O)N[C@H](C(=O)N[C@@H](Cc2ccc(O)cc2)C(N)=O)CCC(=O)NCC2N[C@@H](CCCCN)C(=O)N21` (stereo partly drawn) [H-Lys-Val-Gly-Pro-Phe-Glu(NH-CH2-CHO)-Tyr-NH2] gave a ring closure, conversion by HPLC ([1]; from CC(C)[C@H](NC(=O)[C@@H](N)CCCCN)C(=O)NCC(=O)N1CCC[C@H]1C(=O)N[C@@H](Cc1ccccc1)C(=O)N[C@@H](CCC(=O)NCC=O)C(=O)N[C@@H](Cc1ccc(O)cc1)C(N)=O, 20-membered ring) of 84%.

Compound `NCCCC[C@H](NC(=O)[C@@H]1CCC(=O)NCC2N[C@@H](CC(N)=O)C(=O)N2[C@@H](Cc2ccccc2)C(=O)N2CCC[C@H]2C(=O)N[C@@H](Cc2ccccc2)C(=O)N1)C(N)=O` (stereo partly drawn) [H-Asn-Phe-Pro-Phe-Glu(NH-CH2-CHO)-Lys-NH2] has a ring closure, conversion by HPLC ([1]; from NCCCC[C@H](NC(=O)[C@H](CCC(=O)NCC=O)NC(=O)[C@H](Cc1ccccc1)NC(=O)[C@@H]1CCCN1C(=O)[C@H](Cc1ccccc1)NC(=O)[C@@H](N)CC(N)=O)C(N)=O, 17-membered ring) of 70%.

Work on `CC(C)[C@H]1C(=O)NCC(=O)N2CCC[C@H]2C(=O)N[C@@H](Cc2ccccc2)C(=O)N[C@H](C(=O)N[C@@H](Cc2ccc(O)cc2)C(N)=O)CCC(=O)NCC2N[C@@H](C)C(=O)N21` (stereo partly drawn) [H-Ala-Val-Gly-Pro-Phe-Glu(NH-CH2-CHO)-Tyr-NH2] yielded a ring closure, conversion by HPLC ([1]; from CC(C)[C@H](NC(=O)[C@H](C)N)C(=O)NCC(=O)N1CCC[C@H]1C(=O)N[C@@H](Cc1ccccc1)C(=O)N[C@@H](CCC(=O)NCC=O)C(=O)N[C@@H](Cc1ccc(O)cc1)C(N)=O, 20-membered ring, 8.0 h) of 99%.

In the case of “cyc(Asn-Val-Gly-Pro-Phe-Glu)-Tyr (NVGPFEY; not fully specified (residue 6, bridges); printed as cyc(Asn-Val-Gly-Pro-Phe-Glu)-Tyr; also: Glu side-chain aldehyde, bridge at N, other end not in the chain) [2f]”, the “resistance to hydrolysis/degradation under different pH conditions” value [4] is reported as “remained unchanged; also recorded: No degradation”.

In the case of AVGPFEY-NH2 [AVGPFEY], the “time until fully consumed in the presence of chymotrypsin” value ([2]; HPLC and MS analysis) is reported as 90 min, the remaining at 5 min, 1.5 mM [2] is reported as 82.9% and the remaining at 0.25 h, 1.5 mM [2] is reported as 66.3%. It also gave a remaining at 0.5 h, 1.5 mM [2] of 38.6%, a remaining at 0.75 h, 1.5 mM [2] of 20.2% and a remaining at 1 h, 1.5 mM [2] of 10.9%. For the same compound, the remaining at 1.5 h, 1.5 mM [2] was 7.7%, the remaining at 2 h, 1.5 mM [2] was 0% and the remaining at 8 h, 1.5 mM [2] was 0%. It also gave a half-life at 1.5 mM ([2]; chymotrypsin in Tris buffer, pH 7.5, HPLC and MS analysis, read-out: half-life in the presence of chymotrypsin) of 20 min and an enzyme degradation studies, peptide at time point [2] of 100%.
